{"source": "PubChem BioAssay (NCI)", "test_in_all_cases": "inhibition of tumour cell growth, NCI panel, 48 h", "key": {"786-0 renal": {"tested_on": "786-0 renal"}, "A498 renal": {"tested_on": "A498 renal"}, "A549 NSCLC": {"tested_on": "A549 NSCLC"}, "ACHN renal": {"tested_on": "ACHN renal"}, "BT-549 breast": {"tested_on": "BT-549 breast"}, "CAKI-1 renal": {"tested_on": "CAKI-1 renal"}, "CCRF-CEM leukemia": {"tested_on": "CCRF-CEM leukemia"}, "COLO 205 colon": {"tested_on": "COLO 205 colon"}, "DU-145 prostate": {"tested_on": "DU-145 prostate"}, "EKVX NSCLC": {"tested_on": "EKVX NSCLC"}, "HCC-2998 colon": {"tested_on": "HCC-2998 colon"}, "HCT-116 colon": {"tested_on": "HCT-116 colon"}, "HCT-15 colon": {"tested_on": "HCT-15 colon"}, "HL-60(TB) leukemia": {"tested_on": "HL-60(TB) leukemia"}, "HOP-62 NSCLC": {"tested_on": "HOP-62 NSCLC"}, "HOP-92 NSCLC": {"tested_on": "HOP-92 NSCLC"}, "HS 578T breast": {"tested_on": "HS 578T breast"}, "HT29 colon": {"tested_on": "HT29 colon"}, "IGROV1 ovarian": {"tested_on": "IGROV1 ovarian"}, "K-562 leukemia": {"tested_on": "K-562 leukemia"}, "KM12 colon": {"tested_on": "KM12 colon"}, "LOX IMVI melanoma": {"tested_on": "LOX IMVI melanoma"}, "M14 melanoma": {"tested_on": "M14 melanoma"}, "MALME-3M melanoma": {"tested_on": "MALME-3M melanoma"}, "MCF7 breast": {"tested_on": "MCF7 breast"}, "MDA-MB-231 breast": {"tested_on": "MDA-MB-231 breast"}, "MDA-MB-435": {"tested_on": "MDA-MB-435"}, "MDA-N": {"tested_on": "MDA-N"}, "MOLT-4 leukemia": {"tested_on": "MOLT-4 leukemia"}, "NCI-H226 lung": {"tested_on": "NCI-H226 lung"}, "NCI-H23 lung": {"tested_on": "NCI-H23 lung"}, "NCI-H460 lung": {"tested_on": "NCI-H460 lung"}, "NCI-H522 lung": {"tested_on": "NCI-H522 lung"}, "NCI/ADR-RES ovarian": {"tested_on": "NCI/ADR-RES ovarian"}, "OVCAR-3 ovarian": {"tested_on": "OVCAR-3 ovarian"}, "OVCAR-4 ovarian": {"tested_on": "OVCAR-4 ovarian"}, "OVCAR-5 ovarian": {"tested_on": "OVCAR-5 ovarian"}, "OVCAR-8 ovarian": {"tested_on": "OVCAR-8 ovarian"}, "PC-3 prostate": {"tested_on": "PC-3 prostate"}, "RPMI-8226 leukemia": {"tested_on": "RPMI-8226 leukemia"}, "RXF 393 renal": {"tested_on": "RXF 393 renal"}, "SF-268 CNS": {"tested_on": "SF-268 CNS"}, "SF-295 CNS": {"tested_on": "SF-295 CNS"}, "SF-539 CNS": {"tested_on": "SF-539 CNS"}, "SK-MEL-2 melanoma": {"tested_on": "SK-MEL-2 melanoma"}, "SK-MEL-28 melanoma": {"tested_on": "SK-MEL-28 melanoma"}, "SK-MEL-5 melanoma": {"tested_on": "SK-MEL-5 melanoma"}, "SK-OV-3 ovarian": {"tested_on": "SK-OV-3 ovarian"}, "SN12C renal": {"tested_on": "SN12C renal"}, "SNB-19 CNS": {"tested_on": "SNB-19 CNS"}, "SNB-75 CNS": {"tested_on": "SNB-75 CNS"}, "SW-620 colon": {"tested_on": "SW-620 colon"}, "T-47D breast": {"tested_on": "T-47D breast"}, "TK-10 renal": {"tested_on": "TK-10 renal"}, "U251 CNS": {"tested_on": "U251 CNS"}, "UACC-257 melanoma": {"tested_on": "UACC-257 melanoma"}, "UACC-62 melanoma": {"tested_on": "UACC-62 melanoma"}, "UO-31 renal": {"tested_on": "UO-31 renal"}}, "note": "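Growth conditions: 96-well plates. Treatment: test compound, 48 hours, 5 concentrations. Analysis: linear interpolation between bracketing concentrations; unreached endpoints set to highest concentration. At the TGI there is no net growth.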", "data": [{"molecule": "O=C(O)C1C(C(=O)O)C2C(=O)C=CC1N2Cc1ccccc1", "note": "(stereo not drawn)", "values": [{"measurement": "TGI", "setting": "786-0 renal", "result": 11.7, "unit": "µM"}, {"measurement": "TGI", "setting": "A498 renal", "result": 42.6, "unit": "µM"}, {"measurement": "TGI", "setting": "A549 NSCLC", "result": 22.4, "unit": "µM"}, {"measurement": "TGI", "setting": "ACHN renal", "result": 14.2, "unit": "µM"}, {"measurement": "TGI", "setting": "BT-549 breast", "result": 17.4, "unit": "µM"}, {"measurement": "TGI", "setting": "CAKI-1 renal", "result": 14.5, "unit": "µM"}, {"measurement": "TGI", "setting": "CCRF-CEM leukemia", "result": 2.75, "unit": "µM"}, {"measurement": "TGI", "setting": "COLO 205 colon", "result": 22.1, "unit": "µM"}, {"measurement": "TGI", "setting": "DU-145 prostate", "result": 6.17, "unit": "µM"}, {"measurement": "TGI", "setting": "EKVX NSCLC", "result": 16.3, "unit": "µM"}, {"measurement": "TGI", "setting": "HCC-2998 colon", "result": 7.71, "unit": "µM"}, {"measurement": "TGI", "setting": "HCT-116 colon", "result": 15.2, "unit": "µM"}, {"measurement": "TGI", "setting": "HCT-15 colon", "result": 10.3, "unit": "µM"}, {"measurement": "TGI", "setting": "HL-60(TB) leukemia", "result": 4.31, "unit": "µM"}, {"measurement": "TGI", "setting": "HOP-62 NSCLC", "result": 10.5, "unit": "µM"}, {"measurement": "TGI", "setting": "HOP-92 NSCLC", "result": 24.6, "unit": "µM"}, {"measurement": "TGI", "setting": "HS 578T breast", "result": 6.1, "unit": "µM"}, {"measurement": "TGI", "setting": "HT29 colon", "result": 12.6, "unit": "µM"}, {"measurement": "TGI", "setting": "IGROV1 ovarian", "result": 27.1, "unit": "µM"}, {"measurement": "TGI", "setting": "K-562 leukemia", "result": "> 100", "unit": "µM"}, {"measurement": "TGI", "setting": "KM12 colon", "result": 12.7, "unit": "µM"}, {"measurement": "TGI", "setting": "LOX IMVI melanoma", "result": 19.1, "unit": "µM"}, {"measurement": "TGI", "setting": "M14 melanoma", "result": 5.99, "unit": "µM"}, {"measurement": "TGI", "setting": "MALME-3M melanoma", "result": 8.73, "unit": "µM"}, {"measurement": "TGI", "setting": "MCF7 breast", "result": 25.7, "unit": "µM"}, {"measurement": "TGI", "setting": "MDA-MB-231 breast", "result": 14.4, "unit": "µM"}, {"measurement": "TGI", "setting": "MDA-MB-435", "result": 13.4, "unit": "µM"}, {"measurement": "TGI", "setting": "MDA-N", "result": 11.4, "unit": "µM"}, {"measurement": "TGI", "setting": "MOLT-4 leukemia", "result": 9.18, "unit": "µM"}, {"measurement": "TGI", "setting": "NCI-H226 lung", "result": 35.8, "unit": "µM"}, {"measurement": "TGI", "setting": "NCI-H23 lung", "result": 7.71, "unit": "µM"}, {"measurement": "TGI", "setting": "NCI-H460 lung", "result": 5.1, "unit": "µM"}, {"measurement": "TGI", "setting": "NCI-H522 lung", "result": 3.78, "unit": "µM"}, {"measurement": "TGI", "setting": "NCI/ADR-RES ovarian", "result": 7.58, "unit": "µM"}, {"measurement": "TGI", "setting": "OVCAR-3 ovarian", "result": 10.1, "unit": "µM"}, {"measurement": "TGI", "setting": "OVCAR-4 ovarian", "result": 16.3, "unit": "µM"}, {"measurement": "TGI", "setting": "OVCAR-5 ovarian", "result": 20.5, "unit": "µM"}, {"measurement": "TGI", "setting": "OVCAR-8 ovarian", "result": "> 100", "unit": "µM"}, {"measurement": "TGI", "setting": "PC-3 prostate", "result": 18.8, "unit": "µM"}, {"measurement": "TGI", "setting": "RPMI-8226 leukemia", "result": 13.6, "unit": "µM"}, {"measurement": "TGI", "setting": "RXF 393 renal", "result": 7.51, "unit": "µM"}, {"measurement": "TGI", "setting": "SF-268 CNS", "result": 11.3, "unit": "µM"}, {"measurement": "TGI", "setting": "SF-295 CNS", "result": 23.4, "unit": "µM"}, {"measurement": "TGI", "setting": "SF-539 CNS", "result": 7.56, "unit": "µM"}, {"measurement": "TGI", "setting": "SK-MEL-2 melanoma", "result": 24.1, "unit": "µM"}, {"measurement": "TGI", "setting": "SK-MEL-28 melanoma", "result": 15.5, "unit": "µM"}, {"measurement": "TGI", "setting": "SK-MEL-5 melanoma", "result": 17.2, "unit": "µM"}, {"measurement": "TGI", "setting": "SK-OV-3 ovarian", "result": 17, "unit": "µM"}, {"measurement": "TGI", "setting": "SN12C renal", "result": 5.47, "unit": "µM"}, {"measurement": "TGI", "setting": "SNB-19 CNS", "result": 18.2, "unit": "µM"}, {"measurement": "TGI", "setting": "SNB-75 CNS", "result": 6.97, "unit": "µM"}, {"measurement": "TGI", "setting": "SW-620 colon", "result": 11.6, "unit": "µM"}, {"measurement": "TGI", "setting": "T-47D breast", "result": 15.2, "unit": "µM"}, {"measurement": "TGI", "setting": "TK-10 renal", "result": 11.4, "unit": "µM"}, {"measurement": "TGI", "setting": "U251 CNS", "result": 14.2, "unit": "µM"}, {"measurement": "TGI", "setting": "UACC-257 melanoma", "result": 11.6, "unit": "µM"}, {"measurement": "TGI", "setting": "UACC-62 melanoma", "result": 21.3, "unit": "µM"}, {"measurement": "TGI", "setting": "UO-31 renal", "result": 3.72, "unit": "µM"}]}]}
